Laboratory results taken from patent publication US11077100B2, “Tetrahydroquinoline derivatives as P2X7 receptor antagonists” (RaQualia Pharma Inc., priority 2017, dated 2021).

Columns and labels:
human P2X7 = human P2X7 (Homo sapiens (Human), UniProt Q99572); experiment: Human P2X7 functional assay (Ca2+ influx, Fluo-4, FDSS); type: cell-based; settings: antagonistic activity with respect to the human P2X7 receptor; BzATP final concentration 80 microM
How it was run: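 Ca2+ influx was triggered with BzATP (80 μM final) after a 10-min room-temperature compound preincubation and monitored with Fluo-4 (ex 480/em 540 nm) on FDSS. The cells were HEK293 stably carrying FLAG-tagged human P2X7. Duplicate-averaged 7-point dose-responses gave IC50s.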

rat P2X7 = rat P2X7 (Rattus norvegicus (Rat), UniProt Q64663); experiment: Rat P2X7 functional assay (Ca2+ influx, Fluo-4, FDSS); type: cell-based; settings: HEK293 cells stably expressing rat P2X7; BzATP final 10 microM; 7-point dose-response; read-out: Antagonistic activities with respect to the rat P2X7 receptor (IC50)
Sequence of rat P2X7 (Q64663 whole entry): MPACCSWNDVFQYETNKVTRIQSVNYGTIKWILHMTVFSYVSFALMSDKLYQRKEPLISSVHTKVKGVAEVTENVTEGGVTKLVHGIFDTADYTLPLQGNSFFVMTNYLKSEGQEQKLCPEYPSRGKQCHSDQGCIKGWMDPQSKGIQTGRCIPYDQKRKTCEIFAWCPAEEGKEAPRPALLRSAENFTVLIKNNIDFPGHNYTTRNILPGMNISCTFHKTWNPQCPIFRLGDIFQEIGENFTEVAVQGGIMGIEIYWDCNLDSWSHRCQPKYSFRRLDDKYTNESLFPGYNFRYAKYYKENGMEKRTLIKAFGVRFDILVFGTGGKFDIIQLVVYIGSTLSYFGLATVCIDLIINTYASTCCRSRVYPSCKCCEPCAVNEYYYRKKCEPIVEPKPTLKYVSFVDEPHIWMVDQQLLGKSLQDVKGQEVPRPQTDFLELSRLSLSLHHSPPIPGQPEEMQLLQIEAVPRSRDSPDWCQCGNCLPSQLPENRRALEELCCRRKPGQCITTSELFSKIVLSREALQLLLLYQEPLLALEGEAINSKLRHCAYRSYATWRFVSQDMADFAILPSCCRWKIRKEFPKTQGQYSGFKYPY
How it was run: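 IC50 derived from 7-point dose-response in duplicate, measuring inhibition of BzATP-evoked (final 10 microM) intracellular Ca2+ increase by Fluo-4 fluorescence on FDSS. Rat P2X7-HEK293 cells were exposed to compound for 10 min in the dark beforehand.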

Sequence of human P2X7 (Q99572 whole entry): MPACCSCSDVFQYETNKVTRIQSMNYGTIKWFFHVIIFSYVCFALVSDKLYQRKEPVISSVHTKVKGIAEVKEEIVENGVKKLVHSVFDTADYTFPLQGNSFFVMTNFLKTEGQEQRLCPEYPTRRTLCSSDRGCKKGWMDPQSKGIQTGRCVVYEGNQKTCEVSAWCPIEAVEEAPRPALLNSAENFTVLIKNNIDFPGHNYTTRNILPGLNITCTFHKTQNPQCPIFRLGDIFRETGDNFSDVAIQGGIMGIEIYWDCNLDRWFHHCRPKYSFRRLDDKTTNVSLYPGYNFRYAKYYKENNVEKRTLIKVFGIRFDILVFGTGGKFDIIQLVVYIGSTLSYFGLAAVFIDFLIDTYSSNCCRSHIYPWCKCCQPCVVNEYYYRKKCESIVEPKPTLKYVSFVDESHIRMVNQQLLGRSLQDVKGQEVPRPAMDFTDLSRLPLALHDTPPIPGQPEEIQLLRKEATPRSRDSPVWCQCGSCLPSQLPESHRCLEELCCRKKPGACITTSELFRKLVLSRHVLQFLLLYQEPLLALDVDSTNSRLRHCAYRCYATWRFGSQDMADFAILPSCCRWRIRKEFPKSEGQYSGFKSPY

| SMILES | IC50 (human P2X7) [nM] | IC50 (rat P2X7) [nM] |
| --- | --- | --- |
| O=C(NCc1ccc(F)cc1Cl)[C@]1(F)CC[C@@H](O)c2ncccc21 [Example 107, (5S,8R)-N-(2-chloro-4-fluorobenzyl)-5-fluoro-8-hydroxy-5,6,7,8-tetrahydroquinoline-5-carboxamide] | 101 to 300 | < 1000 |
| O=C(NCc1ccc(F)c(F)c1F)[C@]1(F)CC[C@@H](O)c2ncccc21 [Example 108, (5S,8R)-5-fluoro-8-hydroxy-N-(2,3,4-trifluorobenzyl)-5,6,7,8-tetrahydroquinoline-5-carboxamide] | 301 to 1000 | < 1000 |
| O=C(NCc1ccc(F)cc1C(F)(F)F)[C@]1(F)CC[C@@H](O)c2ncccc21 [Example 110, (5S,8R)-5-fluoro-N-(4-fluoro-2-(trifluoromethyl)benzyl)-8-hydroxy-5,6,7,8-tetrahydroquinoline-5-carboxamide] | 301 to 1000 | < 1000 |
| O=C(NCc1ccc(Cl)cc1F)[C@]1(F)CC[C@@H](O)c2ncccc21 [Example 111, (5S,8R)-N-(4-chloro-2-fluorobenzyl)-5-fluoro-8-hydroxy-5,6,7,8-tetrahydroquinoline-5-carboxamide] | 301 to 1000 | < 1000 |
| O=C(NCc1ccc(Br)cc1Cl)[C@]1(F)CC[C@@H](O)c2ncccc21 [Example 118, (5S,8R)-N-(4-bromo-2-chlorobenzyl)-5-fluoro-8-hydroxy-5,6,7,8-tetrahydroquinoline-5-carboxamide] | < 50 | < 1000 |
| Cc1cccc(Cl)c1CNC(=O)[C@]1(F)CC[C@@H](O)c2ncccc21 [Example 122, (5S,8R)-N-(2-chloro-6-methylbenzyl)-5-fluoro-8-hydroxy-5,6,7,8,- tetrahydroquinoline-5-carboxamide] | 50 to 100 | < 1000 |
| O=C(NCc1cccc(C(F)(F)F)c1Cl)[C@@]1(F)CC[C@@H](O)c2ncccc21 [Example 128, (5R,8R)-N-(2-chloro-3-(trifluoromethyl)benzyl)-5-fluoro-8-hydroxy-5,6,7,8-tetrahydroquinoline-5-carboxamide] | < 50 | < 1000 |
| O=C(NCc1cccc(C(F)(F)F)c1Cl)[C@]1(F)CC[C@H](O)c2ncccc21 [Example 129, (5S,8S)-N-(2-chloro-3-(trifluoromethyl)benzyl)-5-fluoro-8-hydroxy-5,6,7,8-tetrahydroquinoline-5-carboxamide] | < 50 | < 1000 |
| O=C(NCc1ccc(Cl)cc1Cl)[C@@]1(F)CC[C@@H](O)c2ncccc21 [Example 132, (5R,8R)-N-(2,4-dichlorobenzyl)-5-fluoro-8-hydroxy-5,6,7,8-tetrahydroquinoline-5-carboxamide] | < 50 | < 1000 |

The remaining lines, values ahead:

| IC50 (human P2X7) [nM] | IC50 (rat P2X7) [nM] | SMILES |
| --- | --- | --- |
| < 50 | < 1000 | O=C(NCc1c(Cl)cc(Cl)cc1C(F)F)[C@]1(F)CC[C@@H](O)c2ncccc21 [Example 115] |
| < 50 | < 1000 | O=C(NCc1c(F)cc(Cl)cc1Cl)[C@]1(F)CC[C@@H](O)c2ncccc21 [Example 117, (5S,8R)-N-(2,4-dichloro-6-fluorobenzyl)-5-fluoro-8-hydroxy-5,6,7,8-tetrahydroquinoline-5-carboxamide] |
| < 50 | < 1000 | O=C(NCc1c(Cl)cc(Cl)cc1CO)[C@@]1(F)CC[C@@H](O)c2ncccc21 [Example 130, (5R,8R)-N-(2,4-dichloro-6-(hydroxymethyl)benzyl)-5-fluoro-8-hydroxy-5,6,7,8-tetrahydroquinoline-5-carboxamide] |
| < 50 | < 1000 | O=C(NCc1c(Cl)cc(Cl)cc1CO)[C@]1(F)CC[C@H](O)c2ncccc21 [Example 131, (5S,8S)-N-(2,4-dichloro-6-(hydroxymethyl)benzyl)-5-fluoro-8-hydroxy-5,6,7,8-tetrahydroquinoline-5-carboxamide] |
| < 50 | < 1000 | O=C(NCc1ccc(Cl)cc1Cl)[C@]1(F)CC[C@H](O)c2ncccc21 [Example 133, (5S,8S)—N-(2,4-dichlorobenzyl)-5-fluoro-8-hydroxy-5,6,7,8-tetrahydroquinoline-5-carb oxamide] |
